In patent publication US7541360B2, “4-amino-7,8-dihydropteridines, pharmaceutical compositions containing them and their use for the treatment of diseases which are caused by an increased nitric oxide level” (Vasopharm GmbH, priority 2003, dated 2009):

Experiment: In vivo stability: half-life for blood clearance after intravenous injection, venous blood analysed by LC-MS/MS
Details: i.v. 1-10 mg/kg, male Sprague-Dawley rats; for t1/2 (dihydro), half-life for blood clearance: corresponding dihydro-derivative formed spontaneously in vivo from the injected tetrahydro-compound, venous blood; for t1/2 (tetrahydro), half-life for blood clearance: injected tetrahydro-compound, venous blood up to eight hours
Description: The compounds 4-N-cyclohexylmethylamino-5,6,7,8-tetrahydrobiopterin (compound A), 2-amino-4-piperidino-6-phenyl-(R,S)-5,6,7,8-tetrahydropteridin (compound B) and 2-amino-4-di-n-propylamino-6-(4-methoxyphenyl)-(R,S)-5,6,7,8-tetrahydropteridin (compound C) were intravenously injected into male Sprague-Dawley rats (1-10 mg/kg). Venous blood samples were taken up to eight hours after the injections and analyzed for the injected tetrahydro-compounds and for their corresponding dihydro-derivatives, which are spontaneously formed in vivo, by LC-MS/MS.

t1/2 (dihydro), half-life for blood clearance	t1/2 (tetrahydro), half-life for blood clearance	Compound
~30 min	<<5 min	2-amino-4-di-n-propylamino-6-(4-methoxyphenyl)-(R,S)-5,6,7,8-tetrahydropteridin [Compound C]
~20 min	<<5 min	Nc1nc2c(c(N3CCCCC3)n1)NC(c1ccccc1)CN2 (racemic) [Compound B, 2-amino-4-piperidino-6-phenyl-(R,S)-5,6,7,8-tetrahydropteridin]
48 min	<<5 min	CC(O)C(O)C1CNc2nc(N)nc(NCC3CCCCC3)c2N1 (stereo not drawn) [Compound A, 4-N-cyclohexylmethylamino-5,6,7,8-tetrahydrobiopterin]
